This note sets out measurements from patent US20250313563A1, “GLYCOGEN SYNTHASE KINASE 3 INHIBITORS AND USES THEREOF” (The Broad Institute, Inc., priority 2022, published 2025).

SMILES strings stand for the structures. Where two headings read alike, the source gives them in different places. Where only a bound is given, the exact number is not on record here.

Assay [1] concerns the target GSK3α (GST-full length GSK3α) (Homo sapiens (Human), UniProt P49840). Description: GSK3α TR-FRET kinase assay. It is filed as biochemical. Put shortly:
(§1)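 Readout: anti-pSer641 Tb antibody/streptavidin-d2 signal after 60 min, expressed as 665/615 ratio and fitted versus log concentration for IC50. Enzyme: 1 nM GST-GSK3 (α or β), compound-preincubated 30 min. Conditions: pH 7.5 Tris buffer with MgCl2, DTT, BSA; ATP at 4 or 2 μM, or 1 mM; 100 min.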

Assay [2] addresses GSK3b (GST-full length GSK3b) (Homo sapiens (Human), UniProt P49841). Description: GSK3b TR-FRET kinase assay. It is filed as biochemical. Put shortly: as §1
A general note: TR-FRET usually uses a lanthanide donor and a delayed reading to cut background.

Setting [3] is: 1 nM GSK3α, 4 μM ATP, 30 minute preincubation, Table 16, read-out: GSK3-A TR-FRET BIOCHEMICAL (TR-FRET).
The mark [4] stands for this setting: 1 nM GSK3b, 2 μM ATP, 30 minute preincubation, Table 16, read-out: GSK3-B TR-FRET BIOCHEMICAL (TR-FRET).
Where [5] appears, read: read-out: GSK3-A (TR-FRET 1 mM ATP), GMean, IC50, 1 mM ATP, geometric mean.
The mark [6] stands for this setting: read-out: GSK3-B (TR-FRET 1 mM ATP), GMean, IC50, 1 mM ATP, geometric mean.
Where [7] appears, read: 1 nM GSK3α, 4 μM ATP, 30 minute preincubation, read-out: GSK3-A TR-FRET BIOCHEMICAL (TR-FRET), IC50.
[8] abbreviates: 1 nM GSK3b, 2 μM ATP, 30 minute preincubation, read-out: GSK3-B TR-FRET BIOCHEMICAL (TR-FRET), IC50.

Chain of GSK3α (GST-full length GSK3α) (P49840 whole entry): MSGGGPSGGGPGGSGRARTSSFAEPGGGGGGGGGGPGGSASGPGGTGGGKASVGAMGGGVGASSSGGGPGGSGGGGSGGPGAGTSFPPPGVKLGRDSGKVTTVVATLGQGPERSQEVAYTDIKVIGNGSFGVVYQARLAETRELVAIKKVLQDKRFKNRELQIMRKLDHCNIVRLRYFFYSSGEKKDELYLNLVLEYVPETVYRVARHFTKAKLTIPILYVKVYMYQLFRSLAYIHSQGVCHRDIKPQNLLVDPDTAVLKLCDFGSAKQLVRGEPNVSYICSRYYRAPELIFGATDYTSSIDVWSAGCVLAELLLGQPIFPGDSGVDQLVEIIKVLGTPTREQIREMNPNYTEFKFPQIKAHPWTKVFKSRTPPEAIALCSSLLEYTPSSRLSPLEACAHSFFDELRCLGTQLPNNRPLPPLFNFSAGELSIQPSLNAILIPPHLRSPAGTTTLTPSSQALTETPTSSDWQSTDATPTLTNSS
Chain of GSK3b (GST-full length GSK3b) (P49841 whole entry): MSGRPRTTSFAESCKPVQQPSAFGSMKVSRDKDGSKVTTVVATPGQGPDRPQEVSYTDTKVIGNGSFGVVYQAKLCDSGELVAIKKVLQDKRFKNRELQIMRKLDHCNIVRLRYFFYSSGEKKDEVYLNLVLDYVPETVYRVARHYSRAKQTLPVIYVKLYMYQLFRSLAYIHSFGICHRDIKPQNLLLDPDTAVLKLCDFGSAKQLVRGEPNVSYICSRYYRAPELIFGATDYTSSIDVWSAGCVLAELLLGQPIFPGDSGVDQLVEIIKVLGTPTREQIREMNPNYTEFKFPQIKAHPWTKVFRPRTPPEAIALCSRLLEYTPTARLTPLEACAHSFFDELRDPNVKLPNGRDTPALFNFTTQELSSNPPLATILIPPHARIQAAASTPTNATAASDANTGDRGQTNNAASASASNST

On to `CCC1(c2cccc(-c3ccnc(OC(F)(F)F)c3)c2)C2=C(CC(C)(C)CC2=O)Nc2n[nH]cc21` (stereo not drawn) [Compound 943988], for which the values for the IC50 in assay [1] (setting [3]) and in assay [2] (setting [4]) were 100 to 1000 nM and 1000 to 5000 nM, respectively.
Turning to `CCC1(c2cccc(-c3ccncc3C)c2)C2=C(CC(C)(C)CC2=O)Nc2n[nH]cc21` (stereo not drawn) [Compound 943990], the IC50 is no more than 100 nM in assay [1] (setting [3]), no more than 100 nM in assay [1] (setting [5]), no more than 100 nM in assay [2] (setting [4]) and 100 to 1000 nM in assay [2] (setting [6]).
Turning to `CCC1(c2cccc(-c3ccnc(O)c3)c2)C2=C(CC(C)(C)CC2=O)Nc2n[nH]cc21` (stereo not drawn) [Compound 943992], the IC50 in assay [1] (setting [3]) is no more than 100 nM; in assay [2] (setting [4]) it was 100 to 1000 nM.
As for `CCC1(c2cccc(-c3cnnc(C)c3)c2)C2=C(CC(C)(C)CC2=O)Nc2n[nH]cc21` (stereo not drawn) [Compound 943994], the IC50 is no more than 100 nM in assay [1] (setting [3]), 100 to 1000 nM in assay [1] (setting [5]), no more than 100 nM in assay [2] (setting [4]) and 1000 to 5000 nM in assay [2] (setting [6]).
For `CCC1(c2cccc(-c3c(C)nnn3C)c2)C2=C(CC(C)(C)CC2=O)Nc2n[nH]cc21` (stereo not drawn) [Compound 943996], the IC50 was no more than 100 nM in assay [1] (setting [3]), no more than 100 nM in assay [1] (setting [5]), no more than 100 nM in assay [2] (setting [4]) and 100 to 1000 nM in assay [2] (setting [6]).
As for `CCC1(c2cccc(S(=O)(=O)C3COC3)c2)C2=C(CC(C)(C)CC2=O)Nc2n[nH]cc21` (stereo not drawn) [Compound 944017], the IC50 in assay [1] (setting [3]) and in assay [2] (setting [4]) was no more than 100 nM in each case.
Turning to `CCC1(c2cccc(S(=O)(=O)C3CCOC3)c2)C2=C(CC(C)(C)CC2=O)Nc2n[nH]cc21` (stereo not drawn) [Compound 944018], the IC50 in assay [1] (setting [3]) and in assay [2] (setting [4]) was no more than 100 nM throughout.
`CCC1(c2cccc(S(=O)(=O)C3CC(F)(F)C3)c2)C2=C(CC(C)(C)CC2=O)Nc2n[nH]cc21` (stereo not drawn) [Compound 944019]: the IC50 in assay [1] (setting [3]) and in assay [2] (setting [4]) was no more than 100 nM throughout.
For `CCC1(c2cccc(-c3cn[nH]c3)c2)C2=C(CC(C)(C)NC2=O)Nc2n[nH]cc21` (stereo not drawn) [Compound 944022], the IC50 was no more than 100 nM in assay [1] (setting [7]) and 100 to 1000 nM in assay [2] (setting [8]).
As to `CCc1cccc(N(C)c2cccc(C3(CC)C4=C(CC(C)(C)CC4=O)Nc4n[nH]cc43)c2)n1` (stereo not drawn) [Compound 944023], the IC50 is no more than 100 nM in assay [1] (setting [3]) and 100 to 1000 nM in assay [2] (setting [4]).
The corresponding values for `CCC1(c2cccc(-c3cnco3)c2)C2=C(CC(C)(C)CC2=O)Nc2n[nH]cc21` (stereo not drawn) [Compound 944025] are no more than 100 nM and 100 to 1000 nM.
For `CCC1(c2cccc(-c3cncn3C(C)C)c2)C2=C(CC(C)(C)CC2=O)Nc2n[nH]cc21` (stereo not drawn) [Compound 944026], the IC50 in assay [1] (setting [3]) and in assay [2] (setting [4]) was no more than 100 nM throughout.
On to `CCC1(c2cccc(-c3cnn(C)c3C)c2)C2=C(CC(C)(C)NC2=O)Nc2n[nH]c(C)c21` (stereo not drawn) [Compound 944028], for which the IC50 in assay [1] (setting [7]) is no more than 100 nM; in assay [2] (setting [8]), 100 to 1000 nM.
Turning to `CCC1(c2cccc(-c3ccnc(C(C)O)c3)c2)C2=C(CC(C)(C)CC2=O)Nc2n[nH]cc21` (stereo not drawn) [Compound 944029], the IC50 in assay [1] (setting [3]) was no more than 100 nM; in assay [2] (setting [4]), 100 to 1000 nM.
In the case of `CCC1(c2cccc(-c3cn(C)nc3C)c2)C2=C(CC(C)(C)NC2=O)Nc2n[nH]cc21` (stereo not drawn) [Compound 944030], the IC50 in assay [1] (setting [7]) and in assay [2] (setting [8]) was no more than 100 nM each time.
On to `CC[C@]1(c2cccc(-c3ccnc4ccccc34)c2)C2=C(CC(C)(C)CC2=O)Nc2n[nH]cc21` [Compound 944031], for which the IC50 in assay [1] (setting [3]) and in assay [2] (setting [4]) was no more than 100 nM in each case.
With `CCC1(c2cccc(-c3cc(OC)ncc3F)c2)C2=C(CC(C)(C)CC2=O)Nc2n[nH]cc21` (stereo not drawn) [Compound 944032], the IC50 in assay [1] (setting [3]) is no more than 100 nM; in assay [1] (setting [5]) it was 100 to 1000 nM; in assay [2] (setting [4]), no more than 100 nM; in assay [2] (setting [6]), 1000 to 5000 nM.
In the case of `CCC1(c2cccc(-c3ccnc4c3CCCC4)c2)C2=C(CC(C)(C)CC2=O)Nc2n[nH]cc21` (stereo not drawn) [Compound 944033], the IC50 in assay [1] (setting [3]) was no more than 100 nM; in assay [1] (setting [5]), no more than 100 nM; in assay [2] (setting [4]) it was no more than 100 nM; in assay [2] (setting [6]), 100 to 1000 nM.
As for `CC[C@@]1(c2cccc(-c3cc(OC)ncc3F)c2)C2=C(CC(C)(C)CC2=O)Nc2n[nH]cc21` [Compound 944035], the IC50 in assay [1] (setting [3]) was 1000 to 5000 nM; in assay [2] (setting [4]), greater than 5000 nM.
